Experimental data published in ChEMBL document CHEMBL4261632, “Synthesis of five libraries of 6,5-fused heterocycles to establish the importance of the heterocyclic core for antiplasmodial activity” (Bioorg Med Chem, 2018).

tested on: Plasmodium falciparum; test: Antiplasmodial activity against chloroquine-sensitive Plasmodium falciparum NF54; format: functional, organism-based; settings: not given; call rule not given here

SMILES | EC50
Cl.O=C(OCc1cccc2ccccc12)c1nc2c(OC3CCNCC3)cccc2o1 | Not Active
Cl.O=C(NCCc1ccccc1)c1nc2c(OC3CCNCC3)cccc2o1 | Not Active
Cl.O=C(OCc1ccccc1)c1nc2c(OC3CCNCC3)cccc2o1 | Not Active
Cl.O=C(OCCc1ccccc1)c1nc2c(OC3CCNCC3)cccc2o1 | Not Active
Cl.O=C(NCc1ccccc1)c1nc2c(OC3CCNCC3)cccc2o1 | Not Active

same assay, conditions: Plasmodium falciparum, NF54; read-out: EC50

SMILES | EC50
O=C(OCc1cccc2ccccc12)c1cc2c(OC3CCNCC3)cccc2s1 | 1.9 µM
Cn1c(C(=O)OCc2cccc3ccccc23)nc2cccc(OC3CCNCC3)c21 | 7.37 µM
Cn1c(C(=O)NCc2cccc3ccccc23)nc2cccc(OC3CCNCC3)c21 | 1.15 µM
Cc1c(C(=O)OCc2cccc3ccccc23)[nH]c2cccc(OC3CCNCC3)c12 | 0.74 µM
O=C(NCc1cccc2ccccc12)c1nc2c(OC3CCNCC3)cccc2o1 | 1.96 µM
O=C(NCc1cccc2ccccc12)c1cc2c(OC3CCNCC3)cccc2s1 | 0.71 µM
Cc1c(C(=O)OCCc2ccccc2)[nH]c2cccc(OC3CCNCC3)c12 | 3.9 µM
Cn1c(C(=O)OCc2ccccc2)nc2cccc(OC3CCNCC3)c21 | 13.3 µM
Cn1c(C(=O)NCCc2ccccc2)nc2cccc(OC3CCNCC3)c21 | 8.69 µM
Cn1c(C(=O)OCCc2ccccc2)nc2cccc(OC3CCNCC3)c21 | 11.1 µM
C[C@H]1[C@H](OC(=O)CCC(=O)O)O[C@@H]2O[C@@]3(C)CC[C@H]4[C@H](C)CC[C@@H]1[C@@]24OO3 [ARTESUNATE] | 0.00941 µM
CCN(CC)CCCC(C)Nc1ccnc2cc(Cl)ccc12 (configuration not stated) [CHLOROQUINE] | 0.013 µM

Next, values leading:

EC50 | SMILES
5.69 µM | O=C(OCc1ccccc1)c1cc2c(OC3CCNCC3)cccc2s1
6.11 µM | Cc1c(C(=O)NCc2ccccc2)[nH]c2cccc(OC3CCNCC3)c12
0.9 µM | O=C(NCc1cccc2ccccc12)c1cc2c(OC3CCNCC3)cccc2[nH]1
5.87 µM | O=C(OCCc1ccccc1)c1cc2c(OC3CCNCC3)cccc2s1
3.39 µM | O=C(OCc1ccccc1)c1cc2c(OC3CCNCC3)cccc2[nH]1
3.48 µM | O=C(NCc1ccccc1)c1cc2c(OC3CCNCC3)cccc2s1
6.53 µM | O=C(OCCc1ccccc1)c1cc2c(OC3CCNCC3)cccc2[nH]1
0.74 µM | Cc1c(C(=O)NCc2cccc3ccccc23)[nH]c2cccc(OC3CCNCC3)c12
3.74 µM | O=C(NCc1ccccc1)c1cc2c(OC3CCNCC3)cccc2[nH]1
0.83 µM | O=C(OCc1cccc2ccccc12)c1cc2c(OC3CCNCC3)cccc2[nH]1
3.4 µM | Cc1c(C(=O)NCCc2ccccc2)[nH]c2cccc(OC3CCNCC3)c12
3.01 µM | O=C(NCCc1ccccc1)c1cc2c(OC3CCNCC3)cccc2s1
8.8 µM | Cn1c(C(=O)NCc2ccccc2)nc2cccc(OC3CCNCC3)c21
3.1 µM | O=C(NCCc1ccccc1)c1cc2c(OC3CCNCC3)cccc2[nH]1
0.56 µM | Cc1c(C(=O)OCc2ccccc2)[nH]c2cccc(OC3CCNCC3)c12
